Holding throughout (type): cell-based
Assay [1] relates to IFN-γ. Kind of assay: IFN-γ production by PHA-stimulated human PBMC (OptEIA human IFN-g ELISA). A digest of the protocol: (§1)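 PBMC from healthy donors, 1×10^5/well, 2 μg/ml PHA + compound, 48 h. Supernatant cytokine by Luminex bead assay or ELISA as listed. Screen at 10/1/0.1/0.01 μM; IC50 via semilog titration.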
For assay [2], the system named is IL-17FF. Description: IL-17FF production by PHA-stimulated human PBMC (human IL-17F ELI-Pair). A digest of the protocol: as §1
Assay [3] relates to PBMC from healthy human donors. Description: T cell proliferation assay (PHA-stimulated human PBMC, BrdU ELISA). The conditions noted are these: 48 hours. A digest of the protocol: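 Healthy-donor PBMC isolated on Ficoll, seeded at 1×10⁵ cells/well in RPMI with 10% dialysed FCS, stimulated with 2 μg/ml PHA in presence of test compound. Proliferation read after 48 hours by BrdU-incorporation ELISA.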

The mark [4] stands for this setting: PHA-stimulated human PBMC, 48 hours, column C, read-out: IC50 (IFNγ).
The mark [5] stands for this setting: PHA-stimulated human PBMC, 48 hours, column B, read-out: IC50 (IL-17FF).
Setting [6] is: PHA-stimulated human PBMC, column D, read-out: IC50 (Tcell proliferation).
Where [7] appears, read: human PBMC, 2 μg/ml PHA, 48 hours, read-out: C: IC50 (IFNγ).
The mark [8] stands for this setting: human PBMC, 2 μg/ml PHA, 48 hours, read-out: B: IC50 (IL-17FF).
Where [9] appears, read: human PBMC, 2 μg/ml PHA, read-out: D: IC50 (Tcell proliferation).

Where two headings read alike, the source gives them in different places. Where only a bound is given, the exact number is not on record here.

As to `O=C(c1c(-c2c(F)cccc2Cl)noc1-c1cnn(-c2ccncc2)c1C(F)(F)F)N1CCCO1` [IB-57, (3-(2-chloro-6-fluorophenyl)-5-(1-(pyridin-4-yl)-5-(trifluoromethyl)-1H-pyrazol-4-yl)isoxazol-4-yl)(isoxazolidin-2-yl)methanone], the IC50 in assay [1] (setting [4]), in assay [2] (setting [5]) and in assay [3] (setting [6]) was 1000 to 10000 nM throughout.

On to `CCOC(=O)c1c(-c2c(F)cccc2Cl)noc1-c1cnn(-c2ccccc2Br)c1C(F)(F)F` [IB-72, ethyl 5-(1-(2-bromophenyl)-5-(trifluoromethyl)-1H-pyrazol-4-yl)-3-(2-chloro-6-fluorophenyl)isoxazole-4-carboxylate], for which the IC50 in assay [1] (setting [4]), in assay [2] (setting [5]) and in assay [3] (setting [6]) was 100 to 1000 nM in each case.

As to `COC(=O)c1c(-c2ccccc2)noc1-c1cnn(-c2ccccc2F)c1C(F)(F)F` [Example I-61, methyl 5-(1-(2-fluorophenyl)-5-(trifluoromethyl)-1H-pyrazol-4-yl)-3-phenylisoxazole-4-carboxylate], the IC50 in assay [1] (setting [4]), in assay [2] (setting [5]) and in assay [3] (setting [6]) was 1000 to 10000 nM throughout.

Take `CCOC(=O)c1c(-c2c(F)cccc2Cl)noc1-c1cnn(-c2ccncc2)c1C(F)(F)F` [IB-38, ethyl 3-(2-chloro-6-fluorophenyl)-5-(1-(pyridin-4-yl)-5-(trifluoromethyl)-1H-pyrazol-4-yl)-isoxazole-4-carboxylate]: the IC50 in assay [1] (setting [4]), in assay [2] (setting [5]) and in assay [3] (setting [6]) was under 10 nM in each case.

In the case of `COC(=O)c1c(-c2c(F)cccc2Cl)noc1-c1cnn(-c2ccncc2)c1C(F)(F)F` [IB-69, methyl 3-(2-chloro-6-fluorophenyl)-5-(1-(pyridin-4-yl)-5-(trifluoromethyl)-1H-pyrazol-4-yl)isoxazole-4-carboxylate], the IC50 in assay [1] (setting [4]), in assay [2] (setting [5]) and in assay [3] (setting [6]) was 10 to 100 nM throughout.

In the case of `Fc1cccc(Cl)c1-c1noc(-c2cnn(-c3cccc(Cl)c3)c2C(F)(F)F)c1-c1cnco1` [Example 8, 3-(2-chloro-6-fluorophenyl)-5-(1-(3-chlorophenyl)-5-(trifluoromethyl)-1H-pyrazol-4-yl)-4-(oxazol-5-yl)isoxazole], the IC50 in assay [1] (setting [7]), in assay [2] (setting [8]) and in assay [3] (setting [9]) was under 10 nM throughout.

Take `Fc1cccc(Cl)c1-c1noc(-c2cnn(-c3ccncc3)c2C(F)(F)F)c1-c1cnco1` [Example B-33, 3-(2-chloro-6-fluorophenyl)-4-(oxazol-5-yl)-5-(1-(pyridin-4-yl)-5-(trifluoromethyl)-1H-pyrazol-4-yl)isoxazole]: the IC50 in assay [1] (setting [7]) is 100 to 1000 nM; in assay [2] (setting [8]), 1000 to 10000 nM; in assay [3] (setting [9]), 1000 to 10000 nM.

For the compound `CCOC(=O)c1c(-c2c(F)cccc2Cl)noc1-c1cnn(-c2ccccc2[N+](=O)[O-])c1C(F)(F)F` [IB-95, 3-(2-chloro-6-fluorophenyl)-5-(1-(2-nitrophenyl)-5-(trifluoromethyl)-1H-pyrazol-4-yl)isoxazole-4-carboxylate], the values for the IC50 in assay [1] (setting [4]), in assay [2] (setting [5]) and in assay [3] (setting [6]) were 10 to 100 nM, 10 to 100 nM and 100 to 1000 nM, respectively.

Take `CNC(=O)c1c(-c2c(F)cccc2Cl)noc1-c1cnn(-c2ccccc2)c1C(F)(F)F` [Example I-59, 3-(2-chloro-6-fluorophenyl)-N-methyl-5-(1-phenyl-5-(trifluoromethyl)-1H-pyrazol-4-yl)isoxazole-4-carboxamide]: the IC50 in assay [1] (setting [4]), in assay [2] (setting [5]) and in assay [3] (setting [6]) was 100 to 1000 nM throughout.

As to `Cc1nnc(-c2c(-c3c(F)cccc3Cl)noc2-c2cnn(-c3ccncc3)c2C(F)(F)F)s1` [Example B-22, 3-(2-chloro-6-fluorophenyl)-4-(5-methyl-1,3,4-thiadiazol-2-yl)-5-(1-(pyridin-4-yl)-5-(trifluoromethyl)-1H-pyrazol-4-yl)isoxazole], the IC50 in assay [1] (setting [7]) is 10 to 100 nM; in assay [2] (setting [8]), 100 to 1000 nM; in assay [3] (setting [9]) it was 100 to 1000 nM.

On to `COC(=O)c1c(-c2c(F)cccc2Cl)noc1-c1cnn(-c2cccc(N)c2)c1C(F)(F)F` [IB-92, methyl 5-(1-(3-aminophenyl)-5-(trifluoromethyl)-1H-pyrazol-4-yl)-3-(2-chloro-6-fluorophenyl)isoxazole-4-carboxylate], for which the IC50 in assay [1] (setting [4]), in assay [2] (setting [5]) and in assay [3] (setting [6]) was 10 to 100 nM each time.

For `CCOC(=O)c1c(-c2onc(-c3c(F)cccc3Cl)c2C(=O)OC)cnn1-c1cccc(Cl)c1` [Example I-10, methyl 3-(2-chloro-6-fluorophenyl)-5-(1-(3-chlorophenyl)-5-(ethoxycarbonyl)-1H-pyrazol-4-yl)isoxazole-4-carboxylate], the IC50 was in the range of 10 to 100 nM in assay [1] (setting [4]), 100 to 1000 nM in assay [2] (setting [5]) and 10 to 100 nM in assay [3] (setting [6]).

Take `COc1cccc(Cl)c1-c1noc(-c2cnn(-c3ccccc3Cl)c2C(F)(F)F)c1-c1cnco1` [Example B-34, 3-(2-chloro-6-methoxyphenyl)-5-(1-(2-chlorophenyl)-5-(trifluoromethyl)-1H-pyrazol-4-yl)-4-(oxazol-5-yl)isoxazole]: the IC50 in assay [1] (setting [7]), in assay [2] (setting [8]) and in assay [3] (setting [9]) was 100 to 1000 nM throughout.

Turning to `CCOC(=O)c1c(-c2c(F)cccc2Cl)noc1-c1cnn(CCOC)c1C(F)(F)F` [IB-2, ethyl 3-(2-chloro-6-fluorophenyl)-5-(l-(2-methoxyethyl)-5-(trifluoromethyl)-1H-pyrazol-4-yl)isoxazole-4-carboxylate], the results for the IC50 in assay [1] (setting [4]), in assay [2] (setting [5]) and in assay [3] (setting [6]) were 100 to 1000 nM, 100 to 1000 nM and 1000 to 10000 nM, respectively.

Consider `CNC(=O)c1c(-c2c(F)cccc2Cl)noc1-c1cnn(-c2ccccn2)c1C(F)(F)F` [IB-93, 3-(2-chloro-6-fluorophenyl)-N-methyl-5-(1-(pyridin-2-yl)-5-(trifluoromethyl)-1H-pyrazol-4-yl)isoxazole-4-carboxamide], for which the IC50 lay within 100 to 1000 nM in assay [1] (setting [4]), 100 to 1000 nM in assay [2] (setting [5]) and 1000 to 10000 nM in assay [3] (setting [6]).

As to `CCOC(=O)c1c(-c2c(Cl)cncc2Cl)noc1-c1cnn(-c2cccnc2)c1C(F)(F)F` [IB-12, ethyl 3-(3,5-dichloropyridin-4-yl)-5-(1-(pyridin-3-yl)-5-(trifluoromethyl)-1H-pyrazol-4-yl)isoxazole-4-carboxylate], the IC50 in assay [1] (setting [4]) was 100 to 1000 nM; in assay [2] (setting [5]) it was 10 to 100 nM; in assay [3] (setting [6]), 100 to 1000 nM.

With `CCOC(=O)c1c(-c2ccccc2F)noc1-c1cnn(-c2cccc(F)c2)c1C(F)(F)F` [Example I-90, ethyl 3-(2-fluorophenyl)-5-(1-(3-fluorophenyl)-5-(trifluoromethyl)-1H-pyrazol-4-yl)isoxazole-4-carboxylate], the IC50 in assay [1] (setting [4]) lay within 10 to 100 nM; in assay [2] (setting [5]), 100 to 1000 nM; in assay [3] (setting [6]) it was 100 to 1000 nM.

Turning to `CC(=O)Nc1cccc(-n2ncc(-c3onc(-c4c(F)cccc4Cl)c3-c3nnc(C)s3)c2C(F)(F)F)c1` [Example B-12, N-(3-(4-(3-(2-chloro-6-fluorophenyl)-4-(5-methyl-1,3,4-thiadiazol-2-yl)isoxazol-5-yl)-5-(trifluoromethyl)-1H-pyrazol-1-yl)phenyl)acetamide], the IC50 in assay [1] (setting [7]) was 100 to 1000 nM; in assay [2] (setting [8]) it was 1000 to 10000 nM; in assay [3] (setting [9]), 1000 to 10000 nM.

As for `COC(=O)c1c(-c2ccc(Cl)cc2Cl)noc1-c1cnn(-c2cccc(Cl)c2)c1C(F)(F)F` [IB-76, methyl 5-(1-(3-chlorophenyl)-5-(trifluoromethyl)-1H-pyrazol-4-yl)-3-(2,4-dichlorophenyl)isoxazole-4-carboxylate], the IC50 lay in the range of 100 to 1000 nM in assay [1] (setting [4]), 10 to 100 nM in assay [2] (setting [5]) and 100 to 1000 nM in assay [3] (setting [6]).

As for `CCOC(=O)c1c(-c2c(F)cccc2Cl)noc1-c1cnn(-c2ccccc2Cl)c1C(F)(F)F` [IB-33, ethyl 3-(2-chloro-6-fluorophenyl)-5-(1-(2-chlorophenyl)-5-(trifluoromethyl)-1H-pyrazol-4-yl)isoxazole-4-carboxylate], the IC50 in assay [1] (Homo sapiens, PBMC, 48 h, read-out: IC50 (IFNγ)) was 100 to 1000 nM; in assay [2] (Homo sapiens, PBMC, 48 h, read-out: IC50 (IL-17FF)), 100 to 1000 nM; in assay [3] (setting [6]), 100 to 1000 nM.

With `COC(=O)c1c(-c2c(F)cccc2Cl)noc1-c1cnn(-c2c(F)c(F)cc(F)c2F)c1C(F)(F)F` [Example I-47, methyl 3-(2-chloro-6-fluorophenyl)-5-(1-(2,3,5,6-tetrafluorophenyl)-5-(trifluoromethyl)-1H-pyrazol-4-yl)isoxale-4-carboxylate], the IC50 in assay [1] (setting [4]), in assay [2] (setting [5]) and in assay [3] (setting [6]) was 100 to 1000 nM throughout.

`Cc1nnc(-c2c(-c3c(F)cccc3Cl)noc2-c2cnn(-c3cccc(Cl)c3)c2C(F)(F)F)s1` [Example B-3, 3-(2-chloro-6-fluorophenyl)-5-(1-(3-chlorophenyl)-5-(trifluoromethyl)-1H-pyrazol-4-yl)-4-(5-methyl-1,3,4-thiadiazol-2-yl)isoxazole]: the IC50 in assay [1] (setting [7]), in assay [2] (setting [8]) and in assay [3] (setting [9]) was under 10 nM in each case.

With `COC(=O)c1c(-c2c(Cl)cccc2Cl)noc1-c1cnn(-c2cccc(F)c2)c1C(F)(F)F` [Example I-109, methyl 3-(2,6-dichlorophenyl)-5-(1-(3-fluorophenyl)-5-(trifluoromethyl)-1H-pyrazol-4-yl)isoxazole-4-carboxylate], the IC50 in assay [1] (setting [4]), in assay [2] (setting [5]) and in assay [3] (setting [6]) was under 10 nM each time.
